# From patent US20250312320A1, “METHOD AND TREATMENT FOR OSTEOARTHRITIS AND DISEASES OF CHONDROCYTE HYPERTROPHY” (The Royal Veterinary College, priority 2022, published 2025)
# “Also recorded” adds a separate entry of the source.
# Tests used:
# [1] = tested on: MC3T3 (subclone 14) osteoblast-like cells; experiment: MC3T3 osteoblast-like cell mineralisation (alizarin red); format: cell-based
# Procedure: 2×10^4 MC3T3 (subclone 14) osteoblast-like cells were seeded on a 24-well plate and cultured for 2 days in osteoblast growth media (Alpha-MEM supplemented with 10% FBS, 1% Ab/Am) before induction of differentiation with osteoblast differentiation media (Alpha-MEM, 10% FBS, 1% Ab/Am, 50 μg/ml ascorbic acid, 5 mM β-glycerophosphate) in the presence of 1 μM BI1347 or DMSO, with media changes every 2-3 days.
# Another MC3T3 differentiation method was also carried out with MSC2530818 treatment. Briefly, MC3T3 cells were seeded as above and differentiated for 7 days in osteogenic induction media (Alpha-MEM, 10% FBS, 1% Ab/Am, 50 μg/ml ascorbic acid) with DMSO or 100 nM MSC2530818, before switching to osteogenic induction media with 2 mM β-glycerophosphate in the presence of 100 nM MSC2530818 or DMSO.
# Cells were fixed in 95% ice-cold methanol and stained with 1% Alizarin Red on day 7, 10 and 14 of culture for BI1347 and on day 14 only for MSC2530818 treated cells to observe effects of compounds on mineralization compared to DMSO control. Alizarin red stain was leached and measured as previously described.
# ATDC5 micromasses [2] = experiment: Phased dosing of CDK8i on ATDC5 micromasses (alcian blue / alizarin red); format: cell-based, mouse; settings: 1 μM, phased dosing 2, 4, 6, 9, 11, 14 days, read day 14; all timepoints
# Procedure: To understand the longevity of the CDK8i effect observed with BI1347 and MSC2530818, ATDC5 micromasses were exposed to a phased dosing regimen. This consisted of treating standard 10 μl ATDC5 micromasses with differentiation media containing 1 μM of BI1347 or MSC2530818 for 2 days before switching to control differentiation media for the remaining culture period ending on day 14 of differentiation. This was repeated for 4, 6, 9, 11 and 14 days of treatment. On day 14, cells were fixed and stained with alizarin red or alcian blue as previously described.
# MC3T3 cells = experiment: MC3T3 cell viability assay (resazurin); format: cell-based; settings: 1 μM, day 7 and 14
# Procedure: To determine potential toxicity of CDK8i on MC3T3 cells, a cell viability assay was carried out on day 7 and 14 of MC3T3 cells treated with 1 μM BI1347. Briefly, culture media was replaced with differentiation media containing 0.2 mM resazurin dye and incubated for 2 hours at 37° C. before measurement at 570 nm normalized to 600 nm.
# ATDC5 micromasses [3] = experiment: Dose response of CDK8i on genes of interest in hypertrophic ATDC5 micromasses; format: cell-based, mouse; settings: for gene expression of OA protective genes (TIMP4, MATN3, SMOC2, CNMD) / gene expression of hypertrophic/mineralised matrix marker IBSP: 1 μM, 100 nM or 10 nM, 14 day hypertrophic differentiation, vs DMSO; for dose response in gene expression: efficacy down to: 14 days differentiation to hypertrophy
# Procedure: To confirm that the gene expression profile observed in the day 7 RNAseq dataset was reproducible in hypertrophic cells, we selected genes of interest from the RNAseq dataset and analysed gene expression analysis on hypertrophic ATDC5 cells. 2.7×10^5 ATDC5 cells were cultured in 10 μl micromasses in the presence of BI1347 and MSC2530818 at concentrations 1 μM, 100 nM, 10 nM and DMSO control for 7 days in differentiation media before switching to mineralisation media for 7 days. On day 14 cells were processed for qPCR analysis as previously described.
# [4] = tested on: monolayer culture of ATDC5 cells; experiment: Monolayer culture of ATDC5 cells, GAG deposition; format: cell-based, mouse; settings: monolayer instead of micromass
# ATDC5 micromass = experiment: Dose response of CDK8 inhibitors on ATDC5 micromass (alizarin red / alcian blue); format: cell-based, mouse; settings: all concentrations (10 μM down to 0.1 nM), day 14
# Procedure: (§1) In brief, 2 μl micromasses were seeded in a 96-well plate and cultured as previous in the presence of BI1347 and additional CDK8i compounds namely BRD6989, AS2863619, SEL120-34A, MSC2530818 and CCT251545. Compound concentrations were titrated 10-fold from 10 μM down to 0.1 nM. On day 14 micromasses were fixed, stained and subsequently leached to allow for dose response analysis to be conducted.
# as §1, with “seeded on” for “seeded in”, “additional Mediator kinase inhibitor” for “additional CDK8i”
# [5] = tested on: STR/Ort mouse (spontaneous osteoarthritis); experiment: STR/Ort mouse pilot study: cartilage manifestations and gene expression markers; format: in vivo; settings: 5 mg/kg oral gavage intermittently, 2 weeks
# Procedure: The STR/Ort mouse is a spontaneous mouse model of osteoarthritis which follows a similar trajectory as primary osteoarthritis disease development as humans and companion animals. […] An initial pilot study consisting of 2 male STR/Ort mice aged 18 weeks per group was carried out. Mice were dosed 5 mg/kg […] (N=2) or DMSO (N=2) in 60% PEG400 via oral gavage 3 times a week intermittently for 2 weeks. On day 14, mice were sacrificed, and articular cartilage was harvested from the knee joint using a micro rongeur. Tissue was homogenised in Qiazol using 2.4 mm beads in pre-chilled Tissue Lyser II racks (Qiagen) at 30 Hz for 5 minutes in total with intervals for samples to be chilled on ice every 60 seconds to prevent sample heating. Homogenised samples were directly processed for RNA extraction using the Direct-Zol microprep kit (Zymo) and RNA was processed for gene expression analysis via qPCR as previous.
# [6] = tested on: THP-1 derived macrophages; experiment: LPS stimulated THP-1 derived macrophages: IL-1β ELISA of supernatant; format: cell-based, human; settings: 100 nM, LPS 24 hrs
# Procedure: THP-1 monocytes were differentiated into macrophages via treatment with 50 ng/ml phorbol 12-myristate 13-acetate (PMA) in THP-1 growth media (RPMI-1640, 100 μg/ml Primocin, 10% FBS, 0.05 mM β-mercaptoethanol) for 48 hours. Macrophages were then washed twice to remove PMA containing media before a 1-hour pretreatment with 1 μM BI1347 or 100 nM MSC2530818. Inflammatory stimulation was then initiated via the addition of lug/ml lipopolysaccharide (LPS) for 24 hours in the presence of 1 μM BI1347 or 100 nM MSC2530818. Gene expression analysis was subsequently carried out as previously outlined. For MSC2530818 treated/LPS stimulated cells, media supernatant was used for IL-1β cytokine analysis quantification via ELISA (PeproTech, ABTS Human IL-1β development ELISA) as per manufacturer instructions.
SMILES,"mineralisation by alizarin red stain vs DMSO ([1]; 1 μM, over 14 days culture)",Glycosaminoglycan (GAG) deposition (leached alcian blue absorbances) vs DMSO (ATDC5 micromasses [2]),Mineralization (leached alizarin red absorbances) vs DMSO (ATDC5 micromasses [2]),cell viability (resazurin) vs DMSO (MC3T3 cells),"gene expression of OA protective genes (TIMP4, MATN3, SMOC2, CNMD) (ATDC5 micromasses [3])",gene expression of hypertrophic/mineralised matrix marker IBSP (ATDC5 micromasses [3]),dose response in gene expression: efficacy down to (ATDC5 micromasses [3]),changes in GAG deposition [4],alcian blue staining (GAG deposition) (ATDC5 micromass),"mineralisation by alizarin red stain vs DMSO ([1]; 100 nM, 14 days (AA day 0-7, AA + 2 mM BGP day 7-14))","mineralisation by alizarin red stain vs DMSO ([1]; 100 nM, 14 days (AA day 0-7, AA + 2 mM BGP day 7-14), listed as MSC)","gene expression of cartilage anabolic biomarkers ([5]; N=2, not powered for significance)","articular cartilage thickness (appearance post-dissection) ([5]; N=2, vs DMSO)","infiltration of blood vessels in articular cartilage ([5]; male aged 18 weeks, N=2, vs DMSO)","IL1β production / secretion into culture media, reduction [6]"
CN(C)C(=O)Cn1cc(-c2ccc(-c3cncc4ccccc34)cc2)cn1 [BI1347],completely inhibited mineralisation; also recorded: reduced mineralisation,increase in GAG deposition,decrease in mineralisation,no difference in absorbance; also recorded: no toxicity observed,dose dependent increase,dose dependent decrease,10 nM,not seen,maintained,,,,,,
Cc1n[nH]c2ncc(C(=O)N3CCC[C@H]3c3ccc(Cl)cc3)cc12 [MSC2530818],,increase in GAG deposition,decrease in mineralisation,,dose dependent increase,dose dependent decrease,10 nM,not seen,maintained,mineralisation was ablated,ablation of mineralization,increased; also recorded: increase in expression,appears thicker,absent; also recorded: not present,1.5 fold
